Source: paper PMC10658973, “Thiazolopyrimidine derivatives as novel class of small molecule tyrosinase inhibitor” (BMC Chemistry, 2023)
“Also recorded” adds a separate entry of the source. Where two headings read alike, the source gives them in different places.

What was measured:
[1] = target: tyrosinase (EC 1.14.18.1) (Agaricus bisporus, UniProt C7FF04); assay: Tyrosinase inhibitory assay (L-Dopa oxidation); format: biochemical; conditions: for IC50: tyrosinase, L-Dopa substrate, mean of three independent experiments
Chain of tyrosinase (EC 1.14.18.1) (C7FF04 1-392): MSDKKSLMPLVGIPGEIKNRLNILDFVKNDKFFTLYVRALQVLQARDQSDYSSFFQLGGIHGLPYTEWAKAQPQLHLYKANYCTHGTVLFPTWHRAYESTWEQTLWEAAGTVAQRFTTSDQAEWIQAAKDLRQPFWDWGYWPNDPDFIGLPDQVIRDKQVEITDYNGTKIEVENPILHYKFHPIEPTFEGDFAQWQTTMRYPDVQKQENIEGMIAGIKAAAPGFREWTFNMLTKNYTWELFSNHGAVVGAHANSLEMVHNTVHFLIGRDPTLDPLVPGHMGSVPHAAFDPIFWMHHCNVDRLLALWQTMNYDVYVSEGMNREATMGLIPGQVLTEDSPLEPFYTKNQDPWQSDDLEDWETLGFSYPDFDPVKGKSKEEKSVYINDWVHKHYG

tyrosinase [2] = conditions: previously reported, cited from earlier work
hTYR = tested on: hTYR; design: method as in PMID 29427586; conditions: previously reported; cited from earlier work
mTYR = tested on: mTYR; design: method as in PMID 29427586; conditions: previously reported; cited from earlier work
tyrosinase [3] = assay: Enzyme kinetic studies (Lineweaver-Burk, L-Dopa substrate); format: biochemical
Text: The Lineweaver–Burk reciprocal plot was provided by plotting 1/V against 1/[S] at variable concentrations of the L-Dopa.

tyrosinase [4] = assay: UV/VIS spectra of tyrosinase with L-Dopa and inhibitor; format: biochemical; conditions: 475 nm, L-Dopa + tyrosinase, various concentrations of inhibitor
Description: UV spectra of compound 6a, tyrosinase and L-Dopa were analyzed separately. […] However, when L-Dopa was added to tyrosinase without an inhibitor, the highest absorbance was observed, confirming the generation of dopachrome.

SMILES | melting point [°C] | IC50 [1] [µM] | IC50 (tyrosinase [2]) [µM] | other results
CCOC(=O)C1=C(N)Oc2c(ccc3ccccc23)C1c1ccc(N(C)C)cc1 (centres unmarked) [F] | – | – | 34.1 | –
Cn1cc[nH]c1=S [C, methimazole] | – | – | 114 | –
CC(C)C(=O)Nc1nc(-c2ccc(O)cc2O)cs1 [Compound E] | – | – | – | IC50 (hTYR): 1.1 µM; IC50 (mTYR): 108 µM
Nc1nc(-c2ccc(O)cc2O)cs1 [Compound D] | – | – | 51 | –
CCCCC(=O)NC(=S)Nc1ccc(OC)cc1 [B] | – | – | 1.56 | IC50 (tyrosinase [2]; listed as compound B): 5.4 µM
NC(=S)N/N=C/c1cc(COC(=O)c2ccccc2)cs1 [G] | – | – | 0.068 | –
CCOC(=O)C1=C(C)N=C2SC=C(C)N2C1c1ccc(O)c(OC)c1 (centres unmarked) [Compound 6j, Ethyl 5-(4-hydroxy-3-methoxyphenyl)-3,7-dimethyl-5H-thiazolo[3,2-a]pyrimidine-6-carboxylate] | 121 to 122 | 40.8 | – | –

More lines, main results first:

melting point [°C] | IC50 [1] [µM] | SMILES | IC50 (tyrosinase [2]) [µM] | other results
111 to 112 | 40.8 | CCOC(=O)C1=C(C)N=C2SC=C(C)N2C1c1ccccc1F (centres unmarked) [Compound 6b, Ethyl 5-(2-fluorophenyl)-3,7-dimethyl-5H-thiazolo[3,2-a]pyrimidine-6-carboxylate] | – | –
151 to 152 | 45.2 | CCOC(=O)C1=C(C)N=C2SC=C(C)N2C1c1cccc([N+](=O)[O-])c1 (centres unmarked) [Compound 6g, Ethyl 3,7-dimethyl-5-(3-nitrophenyl)-5H-thiazolo[3,2-a]pyrimidine-6-carboxylate] | – | –
112 to 113 | 85.3 | CCOC(=O)C1=C(C)N=C2SC=C(C)N2C1c1cccc(Br)c1 (centres unmarked) [Compound 6f, Ethyl 5-(3-bromophenyl)-3,7-dimethyl-5H-thiazolo[3,2-a]pyrimidine-6-carboxylate] | – | –
114 to 115 | > 250 | CCOC(=O)C1=C(C)N=C2SC=C(C)N2C1c1ccc(C)cc1 (centres unmarked) [Compound 6h, Ethyl 3,7-dimethyl-5-(p-tolyl)-5H-thiazolo[3,2-a]pyrimidine-6-carboxylate] | – | tyrosinase inhibitory activity (in words) ([1]; SAR discussion): complete loss of activity
113 to 114 | 37.7 | CCOC(=O)C1=C(C)N=C2SC=C(C)N2C1c1ccc(Cl)cc1 (centres unmarked) [Compound 6e, Ethyl 5-(4-chlorophenyl)-3,7-dimethyl-5H-thiazolo[3,2-a]pyrimidine-6-carboxylate] | – | –
110 to 111 | 28.5 | CCOC(=O)C1=C(C)N=C2SC=C(C)N2C1c1ccccc1 (centres unmarked) [Compound 6a, Ethyl 3,7-dimethyl-5-phenyl-5H-thiazolo[3,2-a]pyrimidine-6-carboxylate] | – | type of inhibition (tyrosinase [3]; Lineweaver-Burk plot, L-Dopa substrate): noncompetitive inhibitor; also recorded: noncompetitive mode of inhibition; Km (tyrosinase [3]; inhibitor concentration 5 µM): 690 µM; Vmax (tyrosinase [3]; inhibitor concentration 5 µM): 22.22 mM/min; Km (tyrosinase [3]; inhibitor concentration 10 µM): 680 µM; Vmax (tyrosinase [3]; inhibitor concentration 10 µM): 12.66 mM/min; Km (tyrosinase [3]; inhibitor concentration 25 µM): 650 µM; Vmax (tyrosinase [3]; inhibitor concentration 25 µM): 10.35 mM/min; Km (tyrosinase [3]; inhibitor concentration 50 µM): 690 µM; Vmax (tyrosinase [3]; inhibitor concentration 50 µM): 8.40 mM/min; Km (tyrosinase [3]; inhibitor concentration 100 µM): 660 µM; Vmax (tyrosinase [3]; inhibitor concentration 100 µM): 5.15 mM/min; absorbance intensity (dopachrome formation) (tyrosinase [4]): decreased dose-dependently
111 to 112 | 35.7 | CCOC(=O)C1=C(C)N=C2SC=C(C)N2C1c1ccc(OC)cc1 (centres unmarked) [Compound 6i, Ethyl 5-(4-methoxyphenyl)-3,7-dimethyl-5H-thiazolo[3,2-a]pyrimidine-6-carboxylate] | – | –
114 to 115 | 34.2 | CCOC(=O)C1=C(C)N=C2SC=C(C)N2C1c1ccccc1Cl (centres unmarked) [Compound 6d, Ethyl 5-(2-chlorophenyl)-3,7-dimethyl-5H-thiazolo[3,2-a]pyrimidine-6-carboxylate] | – | –
113 to 114 | 56 | CCOC(=O)C1=C(C)N=C2SC=C(C)N2C1c1cccc(F)c1 (centres unmarked) [Compound 6c, Ethyl 5-(3-fluorophenyl)-3,7-dimethyl-5H-thiazolo[3,2-a]pyrimidine-6-carboxylate] | – | –
